Test results from the supplement of paper PMC10307832.

Legend:
Assay in all cases: relative viability (nuclei count vs DMSO), 5 days (fraction); higher = more cells survive
Motesanib + AZD7762 = compound: CC1(C)CNc2cc(NC(=O)c3cccnc3NCc3ccncc3)ccc21 [Motesanib] + NC(=O)Nc1cc(-c2cccc(F)c2)sc1C(=O)N[C@H]1CCCNC1 [AZD7762] (partner 0.2 µM)
How it was run: (§1)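 Relative viability divides the nuclei count in treated wells by that in vehicle wells. Lung cancer cell lines were seeded in 1536-well plates, dosed by pin tool the next day, and fixed and stained after 5 days in one step with final 0.05% Triton X-100, 1% formaldehyde and 1 ug/ml Hoechst. Dosing was a single drug or a fixed anchor-drug dose plus five library-drug doses (not always all listed) in √10 steps, and values are medians of duplicate plates imaged at 4×.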

Motesanib + Palbociclib = compound: CC1(C)CNc2cc(NC(=O)c3cccnc3NCc3ccncc3)ccc21 [Motesanib] + CC(=O)c1c(C)c2cnc(Nc3ccc(N4CCNCC4)cn3)nc2n(C2CCCC2)c1=O [Palbociclib] (partner 0.5 µM)
How it was run: as §1

[1] = compound: C[C@@]1(C(=O)Nc2ccc(F)nc2)CCCN1c1nc(Nc2cc(C3CC3)n[nH]2)c2cccn2n1 + CC(=O)c1c(C)c2cnc(Nc3ccc(N4CCNCC4)cn3)nc2n(C2CCCC2)c1=O [Palbociclib] (partner 0.5 µM)
How it was run: as §1

Motesanib + Luminespib = compound: CC1(C)CNc2cc(NC(=O)c3cccnc3NCc3ccncc3)ccc21 [Motesanib] + CCNC(=O)c1noc(-c2cc(C(C)C)c(O)cc2O)c1-c1ccc(CN2CCOCC2)cc1 [Luminespib] (partner 0.01 µM)
How it was run: as §1

Row | Cell Line | relative viability (Motesanib + AZD7762; first compound 0.01 µM) | relative viability (Motesanib + AZD7762; first compound 0.03162 µM) | relative viability (Motesanib + AZD7762; first compound 0.1 µM) | relative viability (Motesanib + AZD7762; first compound 0.3162 µM) | relative viability (Motesanib + AZD7762; first compound 1 µM) | relative viability (Motesanib + Palbociclib; first compound 0.01 µM) | relative viability (Motesanib + Palbociclib; first compound 0.03162 µM) | relative viability (Motesanib + Palbociclib; first compound 0.1 µM) | relative viability (Motesanib + Palbociclib; first compound 0.3162 µM) | relative viability (Motesanib + Palbociclib; first compound 1 µM) | relative viability ([1]; first compound 0.04 µM) | relative viability ([1]; first compound 0.1265 µM) | relative viability ([1]; first compound 0.4 µM) | relative viability ([1]; first compound 1.265 µM) | relative viability (Motesanib + Luminespib; first compound 0.03162 µM) | relative viability (Motesanib + Luminespib; first compound 0.1 µM) | relative viability (Motesanib + Luminespib; first compound 0.3162 µM) | relative viability (Motesanib + Luminespib; first compound 1 µM) | relative viability (Motesanib + Luminespib; first compound 0.01 µM)
1 | NCI-H522 | 0.815 | 0.721 | 0.864 | 1 | 1 | 1.15 | 1.01 | 1 | 0.84 | 1.26 | 0.935 | 0.874 | 0.779 | 0.889 | 1.14 | 1.22 | 1.18 | 1.1 | –
2 | NCI-H838 | 0.895 | 0.872 | 0.984 | 1 | 0.994 | 0.204 | 0.203 | 0.213 | 0.198 | 0.241 | 0.241 | 0.191 | 0.185 | 0.17 | 0.295 | 0.355 | 0.286 | 0.216 | 0.316
3 | SW 900 | 0.787 | 0.786 | 0.552 | 0.523 | 0.726 | 0.489 | 0.53 | 0.56 | 0.614 | 0.564 | 0.614 | 0.497 | 0.588 | 0.547 | 0.181 | 0.182 | 0.168 | 0.167 | 0.172
4 | A-427 | 0.709 | 0.733 | 0.821 | 0.775 | 0.668 | 0.527 | 0.506 | 0.512 | 0.526 | 0.549 | 0.497 | 0.459 | 0.459 | 0.472 | 1.05 | 0.769 | 1.24 | 1.05 | 0.872
5 | NCI-H1792 | 0.621 | 0.706 | 0.92 | 0.635 | 0.71 | – | 0.583 | 0.653 | 0.675 | 0.667 | 0.417 | 0.742 | 0.268 | 0.393 | 0.428 | 0.406 | 0.501 | 0.466 | 0.447
6 | LCLC-97TM1 | – | 0.328 | 0.241 | 0.238 | 0.256 | 0.188 | 0.216 | 0.229 | 0.32 | 0.261 | 0.0888 | 0.108 | 0.0814 | 0.145 | 0.809 | 0.707 | 0.813 | 0.793 | 0.635
7 | NCI-H1703 | – | 0.127 | 0.139 | 0.13 | 0.13 | – | – | – | – | – | – | – | – | – | – | – | – | – | –
8 | LCLC-103H | 0.802 | 0.743 | 0.781 | 0.825 | 0.829 | 0.505 | 0.469 | 0.525 | 0.555 | 0.513 | 0.471 | 0.452 | 0.48 | 0.465 | 0.92 | 0.996 | 1.04 | 0.98 | 0.92
9 | PC-3 [JPC-3] | 0.779 | 0.751 | 0.727 | 0.731 | 0.683 | 0.558 | 0.544 | 0.568 | 0.605 | 0.559 | 0.557 | 0.467 | 0.516 | 0.549 | 0.745 | 0.683 | 0.597 | 0.733 | 0.686
